Laboratory results from ChEMBL document CHEMBL3779840, “Discovery of 2-((3-Amino-4-methylphenyl)amino)-N-(2-methyl-5-(3-(trifluoromethyl)benzamido)phenyl)-4-(methylamino)pyrimidine-5-carboxamide (CHMFL-ABL-053) as a Potent, Selective, and Orally Available BCR-ABL/SRC/p38 Kinase Inhibitor for Chronic Myeloid Leukemia” (J Med Chem, 2016).

Assays:
[1] = target: Bcr/Abl fusion protein (Homo sapiens) (UniProt P00519+P11274); conditions: BaF3
Description: Inhibition of BCR/ABL p210 (unknown origin) expressed in mouse BA/F3 cells assessed as growth inhibition after 72 hrs by CellTiter-Glo or CCK-8 assay

[2] = Antiproliferative activity against mouse BA/F3 cells assessed as cell viability after 72 hrs by CellTiter-Glo or CCK-8 assay; type: cell-based, BaF3
K562 = assay: Antiproliferative activity against human K562 cells assessed as cell viability after 72 hrs by CellTiter-Glo or CCK-8 assay; type: functional; conditions: K562, 72 h
[3] = target: Transcription factor ETV6/Tyrosine-protein kinase ABL1 (Homo sapiens) (UniProt P00519+P41212); conditions: BaF3
Transcription factor ETV6/Tyrosine-protein kinase ABL1 (Homo sapiens), sequence (P00519 whole entry, looked up): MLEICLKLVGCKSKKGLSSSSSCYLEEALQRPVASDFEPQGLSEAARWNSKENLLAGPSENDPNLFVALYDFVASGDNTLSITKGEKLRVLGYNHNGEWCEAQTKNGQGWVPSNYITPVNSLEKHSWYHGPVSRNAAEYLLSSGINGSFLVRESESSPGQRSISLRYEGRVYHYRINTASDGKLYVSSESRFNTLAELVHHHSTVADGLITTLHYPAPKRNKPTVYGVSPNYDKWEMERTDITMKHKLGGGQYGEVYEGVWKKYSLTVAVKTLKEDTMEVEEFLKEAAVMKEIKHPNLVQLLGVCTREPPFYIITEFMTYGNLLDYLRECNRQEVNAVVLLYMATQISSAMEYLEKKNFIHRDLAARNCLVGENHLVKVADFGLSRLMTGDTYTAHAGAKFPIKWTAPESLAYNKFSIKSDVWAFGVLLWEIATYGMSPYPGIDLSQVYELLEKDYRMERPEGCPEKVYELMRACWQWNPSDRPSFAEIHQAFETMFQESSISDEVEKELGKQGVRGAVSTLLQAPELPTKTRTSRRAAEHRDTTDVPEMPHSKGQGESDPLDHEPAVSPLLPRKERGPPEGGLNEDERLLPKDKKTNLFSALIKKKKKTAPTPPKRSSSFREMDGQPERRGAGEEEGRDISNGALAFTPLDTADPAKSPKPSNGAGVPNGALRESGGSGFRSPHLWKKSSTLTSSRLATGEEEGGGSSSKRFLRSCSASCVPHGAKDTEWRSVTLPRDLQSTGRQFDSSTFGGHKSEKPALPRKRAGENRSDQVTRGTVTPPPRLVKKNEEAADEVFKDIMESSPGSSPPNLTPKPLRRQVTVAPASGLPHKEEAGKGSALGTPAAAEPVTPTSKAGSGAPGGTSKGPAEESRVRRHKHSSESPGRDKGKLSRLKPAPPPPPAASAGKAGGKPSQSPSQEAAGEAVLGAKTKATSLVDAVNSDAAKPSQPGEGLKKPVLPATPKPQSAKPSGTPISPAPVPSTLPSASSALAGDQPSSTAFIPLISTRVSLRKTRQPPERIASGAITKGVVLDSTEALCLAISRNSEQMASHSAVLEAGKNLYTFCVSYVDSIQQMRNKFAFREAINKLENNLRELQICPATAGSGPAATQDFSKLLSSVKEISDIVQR
Transcription factor ETV6/Tyrosine-protein kinase ABL1 (Homo sapiens), sequence (P41212 whole entry, looked up): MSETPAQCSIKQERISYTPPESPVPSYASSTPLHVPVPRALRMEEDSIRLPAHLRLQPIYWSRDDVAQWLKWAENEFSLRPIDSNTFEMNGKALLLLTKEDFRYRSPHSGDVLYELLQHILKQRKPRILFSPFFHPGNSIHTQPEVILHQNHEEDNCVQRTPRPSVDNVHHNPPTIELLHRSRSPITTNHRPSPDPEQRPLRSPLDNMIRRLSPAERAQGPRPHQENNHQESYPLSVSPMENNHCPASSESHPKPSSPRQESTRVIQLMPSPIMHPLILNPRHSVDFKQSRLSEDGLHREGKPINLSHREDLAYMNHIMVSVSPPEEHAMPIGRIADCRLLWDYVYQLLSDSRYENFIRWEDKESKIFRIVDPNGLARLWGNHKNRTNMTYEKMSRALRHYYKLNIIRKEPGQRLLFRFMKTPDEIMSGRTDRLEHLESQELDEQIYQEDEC
Description: Inhibition of Tel-ABL (unknown origin) expressed in mouse BA/F3 cells assessed as cell growth inhibition after 72 hrs by CellTiter-Glo or CCK-8 assay

Bcr/Abl fusion protein (Homo sapiens), sequence (P00519 whole entry, looked up, the tested form may be a part): as the sequence (P00519 whole entry, looked up) above
Bcr/Abl fusion protein (Homo sapiens), sequence (P11274 whole entry, looked up, the tested form may be a part): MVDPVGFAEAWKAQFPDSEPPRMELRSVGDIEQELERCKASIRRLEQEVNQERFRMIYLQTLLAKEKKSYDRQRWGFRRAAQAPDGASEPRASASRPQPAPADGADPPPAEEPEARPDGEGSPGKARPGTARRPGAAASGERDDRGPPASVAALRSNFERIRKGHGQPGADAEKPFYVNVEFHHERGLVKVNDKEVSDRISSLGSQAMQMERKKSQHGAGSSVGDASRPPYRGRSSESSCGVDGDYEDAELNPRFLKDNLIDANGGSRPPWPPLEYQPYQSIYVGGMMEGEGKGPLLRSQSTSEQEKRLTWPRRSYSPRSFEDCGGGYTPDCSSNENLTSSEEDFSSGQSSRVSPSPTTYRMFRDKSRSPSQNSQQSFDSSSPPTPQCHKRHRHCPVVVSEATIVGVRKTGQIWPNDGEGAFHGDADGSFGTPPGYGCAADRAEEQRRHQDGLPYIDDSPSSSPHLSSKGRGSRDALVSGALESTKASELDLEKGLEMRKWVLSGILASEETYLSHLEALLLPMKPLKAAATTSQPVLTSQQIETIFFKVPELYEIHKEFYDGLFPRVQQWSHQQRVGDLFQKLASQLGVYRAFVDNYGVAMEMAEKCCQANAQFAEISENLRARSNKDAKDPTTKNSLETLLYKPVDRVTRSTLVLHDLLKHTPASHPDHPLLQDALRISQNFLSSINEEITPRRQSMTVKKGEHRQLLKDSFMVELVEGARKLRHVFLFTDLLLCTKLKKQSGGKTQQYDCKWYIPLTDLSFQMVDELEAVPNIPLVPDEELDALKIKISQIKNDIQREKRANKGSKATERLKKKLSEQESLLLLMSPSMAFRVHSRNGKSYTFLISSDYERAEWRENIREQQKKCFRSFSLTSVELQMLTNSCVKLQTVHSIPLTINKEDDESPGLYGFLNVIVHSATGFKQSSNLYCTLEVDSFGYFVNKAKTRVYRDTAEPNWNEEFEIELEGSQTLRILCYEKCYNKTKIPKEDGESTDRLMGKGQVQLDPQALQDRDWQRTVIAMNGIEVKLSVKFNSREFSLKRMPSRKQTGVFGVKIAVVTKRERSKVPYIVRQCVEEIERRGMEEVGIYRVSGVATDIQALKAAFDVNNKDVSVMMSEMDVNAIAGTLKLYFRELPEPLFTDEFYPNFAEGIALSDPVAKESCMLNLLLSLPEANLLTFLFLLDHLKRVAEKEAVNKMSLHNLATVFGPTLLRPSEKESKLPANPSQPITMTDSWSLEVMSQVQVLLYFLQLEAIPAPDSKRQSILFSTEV

In the case of CNc1nc(Nc2ccc(C)c(N)c2)ncc1C(=O)Nc1cc(NC(=O)c2ccc3c(c2)OCO3)ccc1C, the GI50 [1] is reported as 124 nM, the GI50 at 72 h [2] is reported as > 10000 nM and the GI50 (K562) is reported as 353 nM. The GI50 [3] was 570 nM.
With CNc1nc(Nc2ccc(C)c(N)c2)ncc1C(=O)Nc1cc(NC(=O)c2cc(OC)c(OC)c(OC)c2)ccc1C the GI50 [1] was 670 nM, the GI50 at 72 h [2] was > 10000 nM and the GI50 (K562) was 250 nM. The GI50 [3] was 445 nM.
With CNc1nc(Nc2ccc(C)c(N)c2)ncc1C(=O)Nc1cc(NC(=O)c2cccc(OC)c2)ccc1C the GI50 [1] was 570 nM, the GI50 at 72 h [2] was > 10000 nM and the GI50 (K562) was 330 nM. It also gave a GI50 [3] of 524 nM.
With CNc1nc(Nc2ccc(C)c(N)c2)ncc1C(=O)Nc1cc(NC(=O)c2ccc3c(c2)OCCO3)ccc1C the GI50 [1] was 1100 nM, the GI50 at 72 h [2] was > 10000 nM and the GI50 (K562) was 320 nM. For the same molecule, the GI50 [3] was 787 nM.
In the case of CNc1nc(Nc2ccc(C)c([N+](=O)[O-])c2)ncc1C(=O)Nc1cc(NC(=O)c2ccccc2OC)ccc1C, the GI50 [1] is reported as > 10000 nM, the GI50 at 72 h [2] is reported as > 10000 nM and the GI50 (K562) is reported as > 10000 nM. For the same molecule, the GI50 [3] was > 10000 nM.
With Cc1ccc(Nc2ncc3c(n2)N(C)C(=O)N(c2cc(NC(=O)c4cccc(C(F)(F)F)c4)ccc2C)C3)cc1N(C)C the GI50 [1] was 30 nM, the GI50 at 72 h [2] was > 10000 nM and the GI50 (K562) was 28 nM. For the same molecule, the GI50 [3] was 42 nM.
Molecule CNc1nc(Nc2ccc(C)c([N+](=O)[O-])c2)ncc1C(=O)Nc1cc(NC(=O)c2cccc(OC)c2)ccc1C has a GI50 [1] of 1100 nM, a GI50 at 72 h [2] of 6310 nM and a GI50 (K562) of 480 nM. For the same molecule, the GI50 [3] was 983 nM.
With Cc1ccc(NC(=O)c2cccc(C(F)(F)F)c2)cc1NC(=O)c1cnc(Nc2ccc(C)c([N+](=O)[O-])c2)nc1N(C)C the GI50 [1] was > 10000 nM, the GI50 at 72 h [2] was > 10000 nM and the GI50 (K562) was > 10000 nM. For the same molecule, the GI50 [3] was > 10000 nM.
With Cc1ccc(Nc2ncc(C(=O)Nc3cc(NC(=O)c4cccc(C(F)(F)F)c4)ccc3C)c(N(C)C)n2)cc1N the GI50 [1] was 1850 nM, the GI50 at 72 h [2] was > 10000 nM and the GI50 (K562) was 1210 nM. It also gave a GI50 [3] of 1030 nM.
For CNc1nc(Nc2ccc(C)c([N+](=O)[O-])c2)ncc1C(=O)Nc1cc(NC(=O)c2cc(OC)cc(OC)c2)ccc1C, the GI50 [1] was 294 nM, the GI50 at 72 h [2] was > 10000 nM and the GI50 (K562) was 1070 nM. The GI50 [3] was 2030 nM.
Cc1ccc(NC(=O)c2cccc(C(F)(F)F)c2)cc1N1Cc2cnc(NC3CCNCC3)nc2N(C)C1=O showed a GI50 [1] of 150 nM, a GI50 at 72 h [2] of 3000 nM and a GI50 (K562) of 19 nM. The GI50 [3] was 100 nM.
For CNc1nc(Nc2ccc(C)c([N+](=O)[O-])c2)ncc1C(=O)Nc1cc(NC(=O)c2ccc3c(c2)OCCO3)ccc1C, the GI50 [1] was 4100 nM, the GI50 at 72 h [2] was > 10000 nM and the GI50 (K562) was 320 nM. For the same molecule, the GI50 [3] was 4240 nM.
Molecule Cc1ccc(NC(=O)c2cccc(C(F)(F)F)c2)cc1N1Cc2cnc(O[C@H]3CCN(C(=O)OC(C)(C)C)C3)nc2N(C)C1=O has a GI50 [1] of 126 nM, a GI50 at 72 h [2] of 8380 nM and a GI50 (K562) of 30 nM. For the same molecule, the GI50 [3] was 292 nM.
With CNc1cc(Nc2ncc3c(n2)N(C)C(=O)N(c2cc(NC(=O)c4cccc(C(F)(F)F)c4)ccc2C)C3)ccc1C the GI50 [1] was 14 nM, the GI50 at 72 h [2] was > 10000 nM and the GI50 (K562) was 19 nM. It also gave a GI50 [3] of 20 nM.
With Cc1ccc(Nc2ncc3c(n2)N(C)C(=O)N(c2cc(NC(=O)c4cccc(-c5ccccc5)c4)ccc2C)C3)cc1N the GI50 [1] was 46 nM, the GI50 at 72 h [2] was > 10000 nM and the GI50 (K562) was 23 nM. The GI50 [3] was 39 nM.
For Cc1ccc(Nc2ncc3c(n2)N(C)C(=O)N(c2cc(NC(=O)c4cccc(C(F)(F)F)c4)ccc2C)C3)cc1C, the GI50 [1] was 66 nM, the GI50 at 72 h [2] was 3760 nM and the GI50 (K562) was 17 nM. For the same molecule, the GI50 [3] was 61 nM.
With Cc1ccc(Nc2ncc(C(=O)Nc3cc(NC(=O)c4cccc(C(F)(F)F)c4)ccc3C)cn2)cc1N the GI50 [1] was 470 nM, the GI50 at 72 h [2] was > 10000 nM and the GI50 (K562) was 330 nM. It also gave a GI50 [3] of 590 nM.
For CNc1nc(Nc2ccc(C)c(N)c2)ncc1C(=O)Nc1cc(NC(=O)c2cc(OC)cc(OC)c2)ccc1C, the GI50 [1] was 311 nM, the GI50 at 72 h [2] was > 10000 nM and the GI50 (K562) was 230 nM. It also gave a GI50 [3] of 628 nM.
Work on Cc1ccc(Nc2ncc3c(n2)N(C)C(=O)N(c2cc(NC(=O)c4cccc(C(F)(F)F)c4)ccc2C)C3)cc1 yielded a GI50 [1] of 19 nM, a GI50 at 72 h [2] of 8000 nM and a GI50 (K562) of 18 nM. The GI50 [3] was 50 nM.
In the case of CNc1nc(Nc2ccc(C)c([N+](=O)[O-])c2)ncc1C(=O)Nc1cc(NC(=O)c2cccc(C(F)(F)F)c2)ccc1C, the GI50 [1] is reported as 36 nM, the GI50 at 72 h [2] is reported as > 10000 nM and the GI50 (K562) is reported as 52 nM. For the same molecule, the GI50 [3] was 87 nM.
Cc1ccc(NC(=O)c2cccc(C(F)(F)F)c2)cc1NC(=O)c1cnc(Nc2ccc(C)c([N+](=O)[O-])c2)nc1 showed a GI50 [1] of 1200 nM, a GI50 at 72 h [2] of 8700 nM and a GI50 (K562) of 380 nM. For the same molecule, the GI50 [3] was 1400 nM.
For Cc1ccc(NC(=O)c2cccc(C(F)(F)F)c2)cc1N1Cc2cnc(Nc3ccc(C)c(C(F)(F)F)c3)nc2N(C)C1=O, the GI50 [1] was 67 nM, the GI50 at 72 h [2] was > 10000 nM and the GI50 (K562) was 29 nM. The GI50 [3] was 185 nM.
For CNc1nc(Nc2ccc(C)c([N+](=O)[O-])c2)ncc1C(=O)Nc1cc(NC(=O)c2cc(OC)c(OC)c(OC)c2)ccc1C, the GI50 [1] was 1500 nM, the GI50 at 72 h [2] was > 10000 nM and the GI50 (K562) was 430 nM. For the same molecule, the GI50 [3] was 931 nM.
In the case of CNc1nc(Nc2ccc(C)c(N)c2)ncc1C(=O)Nc1cc(NC(=O)c2ccc(OC)c(OC)c2)ccc1C, the GI50 [1] is reported as 1600 nM, the GI50 at 72 h [2] is reported as > 10000 nM and the GI50 (K562) is reported as 380 nM. For the same molecule, the GI50 [3] was 1100 nM.
In the case of Cc1ccc(Nc2ncc3c(n2)N(C)C(=O)N(c2cc(NC(=O)c4cccc(C(F)(F)F)c4)ccc2C)C3)cc1N, the GI50 [1] is reported as 5 nM, the GI50 at 72 h [2] is reported as 440 nM and the GI50 (K562) is reported as 3 nM. For the same molecule, the GI50 [3] was 5 nM.
With Cc1ccc(NC(=O)c2cccc(C(F)(F)F)c2)cc1N1Cc2cnc(OC3CCN(C(=O)OC(C)(C)C)CC3)nc2N(C)C1=O the GI50 [1] was 132 nM, the GI50 at 72 h [2] was > 10000 nM and the GI50 (K562) was 29 nM. The GI50 [3] was 288 nM.
CNc1nc(Nc2ccc(C)c([N+](=O)[O-])c2)ncc1C(=O)Nc1cc(NC(=O)c2ccc(OC)c(OC)c2)ccc1C gave a GI50 [1] of 1600 nM, a GI50 at 72 h [2] of 7300 nM and a GI50 (K562) of 680 nM. It also gave a GI50 [3] of 1400 nM.
With Cc1ccc(NC(=O)c2cccc(C(F)(F)F)c2)cc1N1Cc2cnc(OC3CCNCC3)nc2N(C)C1=O the GI50 [1] was 2700 nM, the GI50 at 72 h [2] was > 10000 nM and the GI50 (K562) was 220 nM. For the same molecule, the GI50 [3] was 2040 nM.
For Cc1ccc(Oc2ncc3c(n2)N(C)C(=O)N(c2cc(NC(=O)c4cccc(C(F)(F)F)c4)ccc2C)C3)cc1N, the GI50 [1] was 32 nM, the GI50 at 72 h [2] was > 10000 nM and the GI50 (K562) was 13 nM. It also gave a GI50 [3] of 15 nM.
For CNc1nc(Nc2ccc(C)c(N)c2)ncc1C(=O)Nc1cc(NC(=O)c2ccccc2OC)ccc1C, the GI50 [1] was 6400 nM, the GI50 at 72 h [2] was > 10000 nM and the GI50 (K562) was 1980 nM. For the same molecule, the GI50 [3] was 5200 nM.
For CNc1nc(Nc2ccc(C)c([N+](=O)[O-])c2)ncc1C(=O)Nc1cc(NC(=O)c2ccc3c(c2)OCO3)ccc1C, the GI50 [1] was 214 nM, the GI50 at 72 h [2] was > 10000 nM and the GI50 (K562) was 499 nM. It also gave a GI50 [3] of 1290 nM.
For CNc1nc(Nc2ccc(C)c(N)c2)ncc1C(=O)Nc1cc(NC(=O)c2ccc(OC)cc2)ccc1C, the GI50 [1] was 2100 nM, the GI50 at 72 h [2] was > 10000 nM and the GI50 (K562) was 610 nM. For the same molecule, the GI50 [3] was 1300 nM.
With Cc1ccc(Nc2ncc3c(n2)N(C)C(=O)N(c2cc(NC(=O)c4cc(C(C)(C)C)cc(C(C)(C)C)c4)ccc2C)C3)cc1N the GI50 [1] was 120 nM, the GI50 at 72 h [2] was > 10000 nM and the GI50 (K562) was 1300 nM. For the same molecule, the GI50 [3] was 96 nM.
For Cc1ccc(NC(=O)c2cccc(C(F)(F)F)c2)cc1N1Cc2cnc(NCCCN3CCOCC3)nc2N(C)C1=O, the GI50 [1] was 15 nM, the GI50 at 72 h [2] was 5600 nM and the GI50 (K562) was 7 nM. The GI50 [3] was 9 nM.
In the case of Cc1cccc(C(=O)Nc2ccc(C)c(N3Cc4cnc(Nc5ccc(C)c(N)c5)nc4N(C)C3=O)c2)c1, the GI50 [1] is reported as 14 nM, the GI50 at 72 h [2] is reported as > 10000 nM and the GI50 (K562) is reported as 68.8 nM. For the same molecule, the GI50 [3] was 6 nM.
Cc1ccc(NC(=O)c2cccc(C(F)(F)F)c2)cc1N1Cc2cnc(NC3CCN(C(=O)OC(C)(C)C)CC3)nc2N(C)C1=O gave a GI50 [1] of 55 nM, a GI50 at 72 h [2] of 7520 nM and a GI50 (K562) of 18 nM. For the same molecule, the GI50 [3] was 105 nM.
With Cc1ccc(NC(=O)c2cccc(C(F)(F)F)c2)cc1N1Cc2cnc(O[C@H]3CCNC3)nc2N(C)C1=O the GI50 [1] was 1260 nM, the GI50 at 72 h [2] was > 10000 nM and the GI50 (K562) was 450 nM. It also gave a GI50 [3] of 1380 nM.
In the case of Cc1ccc(Nc2ncc3c(n2)N(C)C(=O)N(c2cc(NC(=O)c4cccc(C(F)(F)F)c4)ccc2C)C3)cn1, the GI50 at 72 h [2] is reported as 120 nM and the GI50 (K562) is reported as 9 nM.
For Cc1cc(C)cc(C(=O)Nc2ccc(C)c(N3Cc4cnc(Nc5ccc(C)c(N)c5)nc4N(C)C3=O)c2)c1, the GI50 [1] was 42 nM, the GI50 at 72 h [2] was > 10000 nM and the GI50 (K562) was 26 nM. For the same molecule, the GI50 [3] was 31 nM.
For CNc1nc(Nc2ccc(C)c([N+](=O)[O-])c2)ncc1C(=O)Nc1cc(NC(=O)c2ccc(OC)cc2)ccc1C, the GI50 [1] was 3600 nM, the GI50 at 72 h [2] was > 10000 nM and the GI50 (K562) was 1530 nM. The GI50 [3] was 2900 nM.
